Assay results: patent US9828350B2, “5,6-dihydro-2H-[1,4]oxazin-3-yl-amine derivatives useful as inhibitors of beta-secretase (BACE)” (Janssen Pharmaceutica NV, priority 2010, dated 2017)

Key:
Abeta total = assay: Cellular αLisa assay in SKNBE2 cells, Abeta total; assay type: cell-based, human; details: incubated for 18 hours; for IC50: Homo sapiens, SKNBE2, 18 h, read-out: Cellular αLisa assay in SKNBE2 cells Abetatotal pIC50 (converted)
In short: (§1)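 Human neuroblastoma SKNBE2 cells expressing wild-type hAPP695 were incubated with compound for 18 hours. Secreted Abeta total and Abeta 1-42 in medium were quantified by sandwich αLisa: biotinylated AbN/25 on streptavidin donor beads with Ab4G8 (total) or cAb42/26 (1-42) acceptor beads. Light emission read after 1 hour (ex 650 nm, em 615 nm).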

Abeta 1-42 = assay: Cellular αLisa assay in SKNBE2 cells, Abeta 1-42; assay type: cell-based, human; details: incubated for 18 hours; for IC50: Homo sapiens, SKNBE2, 18 h, read-out: Cellular αLisa assay in SKNBE2 cells Abeta 42 pIC50 (converted)
In short: as §1

[1] = target: recombinant BACE1 protein (Homo sapiens, UniProt P56817); assay: Biochemical FRET based assay; details: recombinant BACE1 1 μg/ml, 120 minutes at room temperature, pH 5.0; for IC50: read-out: Biochemical FRET based assay pIC50 (converted)
In short: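 Recombinant BACE1 (1 μg/ml final) was incubated 120 minutes at room temperature with […] Mca/Dnp-labelled 13-mer APP Swedish-mutant peptide in 40 mM citrate pH 5.0, 0.04% PEG, 4% DMSO, with or without compound. Cleavage was measured as fluorescence (ex 320/em 405 nm), given as RFU difference between T120 and T0.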

Sequence of recombinant BACE1 protein (P56817 46-501): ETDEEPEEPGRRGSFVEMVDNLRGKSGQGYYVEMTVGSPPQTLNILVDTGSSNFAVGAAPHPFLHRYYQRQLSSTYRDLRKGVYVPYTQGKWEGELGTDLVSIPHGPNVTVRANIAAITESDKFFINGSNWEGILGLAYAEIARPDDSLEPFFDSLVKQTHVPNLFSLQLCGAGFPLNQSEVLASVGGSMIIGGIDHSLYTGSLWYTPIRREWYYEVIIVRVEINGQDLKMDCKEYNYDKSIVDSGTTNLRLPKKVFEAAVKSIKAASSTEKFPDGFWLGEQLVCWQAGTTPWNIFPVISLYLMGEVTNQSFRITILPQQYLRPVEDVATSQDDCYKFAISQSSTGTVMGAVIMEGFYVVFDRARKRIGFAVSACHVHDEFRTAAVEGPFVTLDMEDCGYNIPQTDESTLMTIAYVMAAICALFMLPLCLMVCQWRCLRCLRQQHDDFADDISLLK

Cellular αLisa assay in SKNBE2 cells Abetatotal pIC50 (Abeta total) | Cellular αLisa assay in SKNBE2 cells Abeta 42 pIC50 (Abeta 1-42) | IC50 [1] | IC50 (Abeta total) | IC50 (Abeta 1-42) | Biochemical FRET based assay pIC50 [1] | Compound
 |  | 0.355 µM | 0.724 µM | 0.851 µM |  | C[C@]1(c2cc(NC(=O)c3cnc(OCC(F)(F)F)cn3)ccc2F)N=C(N)CO[C@]1(F)C(F)(F)F [Compound 318]
 |  | 0.219 µM | 0.0813 µM | 0.0891 µM |  | NC1=N[C@@](c2cccc(NC(=O)c3ncc(Cl)cc3F)c2)(C2CC2)[C@H](F)OC1 [Compound 249, (2S,3R)—N-[3-(5-amino-3-cyclopropyl-2-fluoro-3,6-dihydro-2H-1,4-oxazin-3-yl)phenyl]-5-chloro-3-fluoropyridine-2-carboxamide]
6.84 | 6.83 |  |  |  | 5.37 | CC1(c2cc(NC(=O)c3ccc(C(F)(F)F)cn3)c(F)cc2F)COCC(N)=N1 (racemic) [Compound 13]
7.34 | 7.3 | 0.0741 µM |  |  |  | CCC1(c2cc(NC(=O)c3cnc(OC)cn3)ccc2F)N=C(N)COC1F (stereo not drawn) [Compound 281]
 |  | 0.0437 µM | 0.0692 µM | 0.0741 µM |  | C[C@]1(c2cc(NC(=O)c3cnc(OCC(F)(F)F)cn3)ccc2F)N=C(N)CO[C@@]1(F)C(F)(F)F [Compound 319]
8.36 | 8.35 |  |  |  | 7.48 | Cc1cc(Cl)cnc1C(=O)Nc1ccc(F)c([C@]2(C)COCC(N)=N2)c1 [Compound 143]
 |  | 0.049 µM | 0.00617 µM | 0.00631 µM |  | C[C@]1(c2cc(NC(=O)c3ncc(C#N)cc3Cl)ccc2F)N=C(N)CO[C@H]1C(F)(F)F [Compound 308]
 |  | 0.0479 µM | 0.00646 µM | 0.00661 µM |  | C[C@]1(c2cc(NC(=O)c3ncc(Cl)cc3F)ccc2F)N=C(N)CO[C@H]1C(F)(F)F [Compound 260]
 |  | 0.263 µM | 0.263 µM | 0.24 µM |  | C[C@]1(c2cccc(NC(=O)c3ncc(Cl)cc3Cl)c2)N=C(N)CO[C@@]1(F)C(F)(F)F [Compound 243]
7.6 | 7.59 |  |  |  | 6.7 | CC1(c2cc(NC(=O)c3cnc(C(F)(F)F)cn3)ccc2F)COCC(N)=N1 (stereo not drawn) [Compound 147]
 |  | 0.138 µM | 0.0275 µM | 0.0324 µM |  | NC1=N[C@@](c2cccc(NC(=O)c3ncc(Cl)cc3F)c2)(C2CC2)[C@@H](C(F)(F)F)OC1 [Compound 287]
5.24 | 5.18 | 0.295 µM |  |  |  | CC1(c2cccc(NC(=O)c3ncc(Cl)cc3F)c2)N=C(N)COC1(F)C(F)(F)F (single isomer, unassigned) [Compound 175]

Continued, compound first:

Compound | Cellular αLisa assay in SKNBE2 cells Abetatotal pIC50 (Abeta total) | Cellular αLisa assay in SKNBE2 cells Abeta 42 pIC50 (Abeta 1-42) | IC50 [1] | IC50 (Abeta total) | IC50 (Abeta 1-42) | Biochemical FRET based assay pIC50 [1]
COc1cnc(C(=O)Nc2cccc(C3(C)N=C(N)COC3F)c2)cn1 (single isomer, unassigned) [Compound 131] | 7.52 | 7.54 | 0.0355 µM |  |  | 
COc1cncc(-c2cccc(C3(C)N=C(N)COC3(F)C(F)(F)F)c2)c1 (single isomer, unassigned) [Compound 141] | <5 | <5 | > 30.2 µM |  |  | 
C[C@@]1(c2cccc(-c3cccc(C#N)c3)c2)COCC(N)=N1 [Compound 51] | 6.59 | 6.61 |  |  |  | 5.41
CC1(c2cccc(NC(=O)c3ccc(Cl)cn3)c2)COC(F)(C(F)(F)F)C(N)=N1 (single isomer, unassigned) [Compound 71] | <5 | <5 |  |  |  | 6.25
Cc1cnc(C(=O)Nc2cccc(C3(C)COCC(N)=N3)c2)cn1 (racemic) [Compound 7] | 6.53 | 6.49 |  |  |  | 5.39
COc1cnc(C(=O)Nc2cccc(C3(C)COC(F)(C(F)(F)F)C(N)=N3)c2)cn1 (single isomer, unassigned) [Compound 158] |  |  | > 30.2 µM | > 10 µM | > 10 µM | 
Cc1ccc(C(=O)Nc2ccc(F)c(C3(C)COCC(N)=N3)c2)nc1 (stereo not drawn) [Compound 24] | 7.73 | 7.77 |  |  |  | 6.77
COc1cnc(C(=O)Nc2cccc(C3(C)N=C(N)COC3(F)C(F)(F)F)c2)cn1 (single isomer, unassigned) [Compound 179] | <5 | <5 | > 30.2 µM |  |  | 
NC1=N[C@@](c2cccc(NC(=O)c3ncc(Cl)cc3Cl)c2)(C2CC2)[C@H](F)OC1 [Compound 276] |  |  | 0.174 µM | 0.0417 µM | 0.0417 µM | 
C[C@@]1(c2cccc(-c3cncnc3)c2)CO[C@@](C)(C(F)(F)F)C(N)=N1 (racemic) [Compound 161, trans-rac-2,5-dimethyl-5-(3-pyrimidin-5-ylphenyl)-2-(trifluoromethyl)-5,6-dihydro-2H-1,4-oxazin-3-amine] | <5 | <5 |  |  |  | 4.53
NC1=N[C@@](c2cc(-c3cncc(Cl)c3)ccc2F)(C2CC2)[C@@H](F)OC1 [Compound 294] |  |  | 2.29 µM | 4.9 µM | 6.61 µM | 
COc1cncc(-c2ccc(F)c(C3(C)COCC(N)=N3)c2)c1 (single isomer, unassigned) [Compound 156] | 7.1 | 7.02 |  |  |  | 5.69
Cc1cc(Br)cnc1C(=O)Nc1cccc([C@@]2(C3CC3)N=C(N)CO[C@@H]2F)c1 [Compound 313] |  |  | 0.0166 µM | 0.0135 µM | 0.0178 µM | 
CC1(c2cc(-c3cncnc3)ccc2F)COCC(N)=N1 (single isomer, unassigned) [Compound 53] | <5 | 5.28 |  |  |  | <4.52
COc1cc(Cl)ccc1C(=O)Nc1ccc(F)c([C@]2(C)COCC(N)=N2)c1 [Compound 45] | 6.92 | 6.85 |  |  |  | 5.53
CC1(c2cccc(-c3cncc(C#N)c3)c2)N=C(N)COC1C(F)(F)F (single isomer, unassigned) [Compound 206] | <5 | <5 | > 30.2 µM |  |  | 
N#Cc1ccc(C(=O)Nc2cccc([C@@]3(C4CC4)N=C(N)CO[C@@H]3F)c2)nc1 [Compound 251] |  |  | 0.049 µM | 0.038 µM | 0.0417 µM | 
COc1cncc(-c2cccc(C3(C)N=C(N)COC3C(F)(F)F)c2)c1 (single isomer, unassigned) [Compound 101] | 7.7 | 7.71 | 0.178 µM |  |  | 
NC1=N[C@@](c2cccc(NC(=O)c3ncc(Cl)cc3Cl)c2)(C2CC2)[C@@H](F)OC1 [Compound 256] |  |  | 0.0427 µM | 0.0263 µM | 0.0288 µM | 
